The test system of series [1] is mice with Imiquimod-induced psoriasis-like skin inflammation. The series is described as follows: Imiquimod-induced psoriasis-like disease in mice. Type of series: in vivo.
In series [2] the test system is PBMC from the blood of psoriasis patients. The series is described as follows: Regulatory T cells in PBMC from blood of psoriasis patients. Type of series: cell-based, human.
The test system of series [3] is CD4+-T-cells. The series is described as follows: CD4+ T-cells after contact with peptide-treated DC in vitro. Type of series: cell-based.
For series [4], the system named is HDMEC. Kind of series: Lymphocyte adhesion assay (51Cr-labeled lymphocytes on endothelial cell layers). It counts as cell-based, human. The settings on record: molt4 T lymphocytes, JY B lymphocytes. The protocol:
(§1) Human dermal microvascular endothelial cells (HDMEC) and the cell line HMEC-1 (human microvascular endothelial cell line 1) were treated either with TNFα or LPS in the presence or absence of one of the peptides. The cells were harvested for RNA isolation after 3 and after 6 hours after treatment or harvested either for adhesion molecule ETA or FACS analysis 3, 6, 16 or 24 hours after treatment. RNA underwent reverse transcription, and samples were subjected to a PCR for E selectin, ICAM-1, VCAM or for β-actin as housekeeping gene in order to carry out a semiquantitative determination. For the lymphocyte adhesion assay, the endothelial cells were seeded in dishes and incubated with ^51Cr-labeled lymphocytes. After a washing step, the amount of remaining lymphocytes bound to the EC layer was determined by measuring the radioactivity in the samples.

Series [5] deals with T cells / DC. The series is described as follows: T cells contacted in vitro with antigen-loaded, αMSH or derivative-treated DC. Type of series: in vivo, mouse. To be noted: FIG. 15.
Series [6] relates to Balb/C mice. The series is described as follows: CHS sensitization and tolerance after i.v. injection of αMSH or peptides (DNFB). To be noted: for inhibition of CHS response to DNFB exposure 7 days after sensitization (auricular swelling): i.v. 2 hours before sensitization, 5 μg αMSH or 1.5 μg peptide (KP: 50 μg) per mouse; for auricular swelling response after second sensitization and hapten exposure (tolerance to DNFB): injected i.v. before the first sensitization only.
Description: 7 to 10 week old female Balb/C mice were obtained from Charles River (Sulzfeld, Germany) and kept in compliance with government regulations.
Before the injection, the particular compound was dissolved in PBS, 0.1% mouse serum, and stored on ice until injected i.v. into the tail vein of the mice.
The mice were sensitized by spreading 75 μl of 0.5% DNFB in acetone/olive oil (4:1) on the shaven abdomen of naive mice. CHS was induced by applying 10 μl of 0.3% DNFB to the ears of the mice on both sides of one ear. CHS was determined by the degree of auricular swelling of the hapten-exposed ear compared with the other, control-treated ear and was measured using spring-loaded dividers 24 hours after hapten exposure. Mice whose ears were exposed to hapten without previous sensitization served as negative controls.

Series [7] has as its system bone marrow dendritic cells (BMDC). The series is described as follows: CHS and tolerance after injection of BMDC treated in vitro with hapten and αMSH or KP. Type of series: in vivo, mice. The settings on record: for immune response at second challenge after resensitization (tolerance): recipients of hapten- and peptide-treated BMDC; for CHS reaction at first challenge in recipients of hapten- and peptide-treated BMDC: αMSH 2×10^−11 M or KP 2×10^−6M in vitro, cells i.v. The procedure: Bone marrow dendritic cells (BMDC) were isolated from the femoral bones of mice and treated with IL-4 and GMCSF for 6 or 9 days. On day 6 or 9, the cells were treated with αMSH (2×10^−11 M) or the peptide KP (2×10^−6M) 3 hours and 2.5 hours before reinjection into naive mice with the same genetic background. 2 hours before reinjection, the cells were treated with hapten (1 mM DNBS, the water-soluble form of DNFB). Immediately before the reinjection, the cells were washed 2× with PBS. […] were injected i.v. into each animal. Control cells were treated either with DNBS alone or with αMSH alone or were left untreated. 5 days after injection, the animals were contacted with DNFB on the ear, and the ear thickness was measured the next day. 2 weeks later, the animals were resensitized with DNFB and again recontacted on the ear 5 days later. Finally, the auricular swelling was measured.

Series [8] has as its system LPS-treated mice. The series is described as follows: LPS-induced localized vasculitis in mice (E selectin, petechial lesions). Type of series: in vivo. The settings on record: αMSH 25 μg at the time of the preparatory LPS injection. The protocol: Mice were treated with LPS by s.c. injection on one ear. This preparatory injection induces a long-lasting rise in E selectin expression at the site of the LPS injection. 24 hours later, a second LPS dose was injected i.p. (challenge). This second LPS injection leads to rapid vessel necrolysis and to the formation of petechial lesions which are easily measurable because of their size and number. αMSH (25 μg) was administered at the time of the preparatory LPS injection.

Series [9] relates to sensitised recipient mice (Hapten: DNFB). Kind of series: Reinjection of CD4+ T-cells contacted with peptide-treated DC into DNFB-sensitised mice. Type of series: in vivo. The settings on record: 1×10^6 cells.
In series [10] the test system is E selectin, ICAM-1, VCAM in HDMEC and HMEC-1. Kind of series: Expression of adhesion molecules in LPS- or TNFα-treated endothelial cells (RT-PCR, EIA, FACS). It counts as cell-based, human. The settings on record: 10^−6 to 10^−12 M. The protocol:
as §1

Series [11] deals with human PBMC. Kind of series: IL-10 secretion by human PBMC (ELISA). It counts as cell-based. To be noted: for IL-10 production: 24 hours, αMSH 10^−11 M, KPV and KPT 10^−8 to 10^−9M; for production of IL-10: 48 hours. The protocol:
Mononuclear cells (PBMC) were separated from human buffy coats by Ficoll Hypaque density gradient centrifugation. Cells (1×10^6 per ml), cultivated in RPMI 1640 with antibiotics and 10% FCS, were either not treated or stimulated with αMSH or the peptides KPV or KPT with or without IL-1β (10 U/ml). The supernatants of the PBMC cultures were collected after incubation for 24 or 48 hours and stored at −20° C. until used further. A commercially available ELISA was employed to detect IL-10.
On the technique in general: An ELISA detects its analyte on a solid surface through an enzyme-linked reagent.

Series [12] deals with T1, melanocortin receptor on THP-1 cells (MC-1) (Homo sapiens, UniProt Q01726).
T1 construct: endogenous in cells; host or cells: THP-1 monocytic cell line (unstimulated, whole cells)
T1 sequence (Q01726 whole entry): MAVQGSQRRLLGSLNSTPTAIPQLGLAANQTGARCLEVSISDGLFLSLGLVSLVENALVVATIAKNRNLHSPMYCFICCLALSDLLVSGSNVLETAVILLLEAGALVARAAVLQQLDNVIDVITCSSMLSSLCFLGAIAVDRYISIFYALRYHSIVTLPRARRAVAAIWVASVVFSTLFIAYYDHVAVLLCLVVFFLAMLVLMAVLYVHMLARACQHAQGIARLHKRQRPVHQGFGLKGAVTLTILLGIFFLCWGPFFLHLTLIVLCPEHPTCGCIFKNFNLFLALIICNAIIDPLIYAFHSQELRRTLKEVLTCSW
The series is described as follows: Competition with biotin-labeled αMSH for binding sites on THP-1 cells (FACS). The settings on record: unlabeled competitor 10^−6 M; biotin-labeled αMSH 10^−10 M. The procedure:
All the steps were carried out at 0 to 4° C. The monocytic cell line THP-1 was washed once in PBS, once one acidic glycine buffer (50 mM glycine, 100 mM sodium chloride, pH 3) and three times with RPMI. The cells 2.5×10^6 per ml) were then resuspended in 100 μl of RPMI/1% BSA and transferred into 96-well microtiter plates. […] After a last washing step, the cells were resuspended in PBS. […] Dead cells were excluded by adding propidium iodide shortly before the FACS analysis.

For series [13], the system named is BNX mice transplanted with skin from psoriatic human donors. The series is described as follows: Psoriasis transplant model (human psoriatic skin on BNX mice). Type of series: in vivo. To be noted: FIG. 25B; KdPT i.p. 10 μg/d, three weeks. The procedure: Immunodeficient mice (BNX mice) were transplanted with skin from psoriatic human donors. Animals with viable transplant were injected with PBMCs from the same donor, resulting in appearance of a psoriatic phenotype within the transplant. Animals were treated as follows:
Group 1: Betamethasone, topically, 2× daily, Group 2: Vehicle, i.p. 100 μL/d, Group 3: KdPT i.p. 1 μg/d, Group 4: KdPT i.p. 10 μg/d, all treatments were kept up for three weeks.
As shown in FIGS. 25A and 25B, immunodeficient mice (BNX mice) were transplanted with skin from psoriatic donors. Animals with viable transplant were injected with PBMCs from the same donor, resulting in appearance of a psoriatic phenotype within the transplant. Animals were treated as follows:
Group 1: Vehicle, i.p. 100 μL/d, Group 2: Betamethasone, topically, 2× daily, Group 3: KdPT i.p. 10 μg/d, all treatments were kept up for three weeks.

Square brackets hold non-standard residues; d marks the D form. Peptide text beside a SMILES is read from it.

Take α-melanocyte-stimulating hormone [αMSH]: the “number of regulatory CD4+CD25+Foxp3+ T cells” value in series [1] (flow cytometry) is reported as “increased numbers”. Also, the “expression of regulatory T cells markers” value in series [1] (qRT-PCR) is on record as “increased expression”. In [1] (quantitative RT-PCR), the “expression of Th17 markers” value was “Reduced Expression”. In series [2], the “expression of Foxp3 and IL-10 in regulatory T cells” value is “upregulated”; the “expression of IFN-γ in regulatory T cells” value is listed as “downregulated substantially”. Further, in [3], the “effect of co-cultured CD4+ T-cells on proliferation of CD4+CD25− responder T-cells” value is given as “suppressive effect on the proliferation”. The “binding of T and B cells to LPS- or TNF-αMSH-treated EC layers” value in series [4] is on record as “significantly reduces”. Moreover, in series [5], the “induction of tolerance by T cells contacted in vitro with antigen-loaded, treated DC” value is “induction of tolerance”. For the same compound, in [6], the “inhibition of CHS response to DNFB exposure 7 days after sensitization (auricular swelling)” value (from here on “inhibition of CHS response”) was “inhibits”; the “auricular swelling response after second sensitization and hapten exposure (tolerance to DNFB)” value (“auricular swelling response” for short) was “inhibited the auricular swelling response very greatly”. Moreover, in series [7], the “immune response at second challenge after resensitization (tolerance)” value is given as “no immune response”; the “CHS reaction at first challenge in recipients of hapten- and peptide-treated BMDC” value was “suppressed”. In addition, the “number and size of petechial lesions after challenge injection of LPS” value in series [8] is on record as “significantly reduces”. Also, the “effect of reinjected CD4+ T-cells on contact allergy” value in [9] is reported as “suppressive effect on contact allergy”. Moreover, the “inhibition of LPS- or TNFα-induced expression of adhesion molecules (mRNA)” value in series [10] is on record as “inhibited”. In [11], the IL-10 production entry is reported as “evidently induced IL-10 production” and the “production of IL-10” value is listed as “significantly increased”.
With Lys-Pro-Val [KPV], the “effect of co-cultured CD4+ T-cells on proliferation of CD4+CD25− responder T-cells” value in series [3] is on record as “suppressive effect on the proliferation”. The “suppression of biotin-labeled αMSH binding” value in series [12] is on record as “significant inhibition”. In addition, in [6], the “inhibition of CHS response” value is listed as “inhibits”; the “auricular swelling response” value was “weak effect”. The “effect of reinjected CD4+ T-cells on contact allergy” value in [9] is listed as “suppressive effect on contact allergy”. Moreover, in [11], the IL-10 production result is listed as “evidently induced IL-10 production” and the “production of IL-10” value is “significantly increased”.
With `C[C@@H](O)[C@H](NC(=O)[C@H]1CCCN1C(=O)[C@@H](N)CCCCN)C(=O)O` [KdPT, (L)Lys-(D)Pro-(L)Thr] (H-Lys-[dP]-Thr-OH), the “weight loss as compared to treatment with betamethasone” value in series [13] is given as “does not result in weight loss”.
Take Lys-Pro [KP]: in series [6], the “inhibition of CHS response” value is “inhibits”; the “auricular swelling response” value is reported as “inhibited the auricular swelling response very greatly”. Also, in series [7], the “immune response at second challenge after resensitization (tolerance)” value is “can induce tolerance”; the “CHS reaction at first challenge in recipients of hapten- and peptide-treated BMDC” value was “suppressed”.

Values taken from patent publication US10046020B2, “Inflammation inhibiting compounds” (priority 2001, dated 2018).
